Reference: PMC12730863 (Biomedicines, 2025)

How the values were obtained:
HCT-8/V cells [1] = assay: Cytotoxicity assay (MTT, 72 h); type: cell-based, human; conditions: for IC50 / Fold Resistance: chemotherapeutic drug alone; for Fold Resistance: relative to IC50 of HCT-8 without inhibitors
Description: All cell lines were grown in Dulbecco’s modified Eagle’s medium supplemented with 10% CellMax fetal bovine serum (#SA301.02.V) from Lanzhou Minhai Bio-Engineering Co. (Lanzhou, China) and maintained in a humidified incubator at 37 °C with 5% CO2.
(§1) Cells were seeded into 96-well plates at a concentration of 5 × 10^3 cells per well. Following cell attachment, the respective agents were added for a 72-h incubation period. Upon treatment completion, 500 μg/mL MTTwas added and the plates were incubated for 4 h. Subsequently, the supernatant was carefully aspirated, and 50 μL DMSO was added. Absorbance at 570 nm was measured via BioTek Synergy H1 plate reader (Agilent Technologies, Santa Clara, CA, USA). IC50 values were calculated with GraphPad Prism 8.0.

HCT-8 cells [2] = assay: Cytotoxicity assay (MTT, 72 h); type: cell-based, human; conditions: for IC50 / Fold Resistance: HCT-8, chemotherapeutic drug alone; for Fold Resistance: relative to IC50 of HCT-8 without inhibitors
Description: as §1

ABCB1 [3] = biological target: T1, ABCB1 (Homo sapiens, UniProt P08183); assay: ABCB1 ATPase activity assay; type: biochemical; conditions: 5 mM Mg2+-ATP, 37 °C, 40 min, luminescence; read-out: IC50 of inhibition of the ATPase activity of ABCB1
T1 construct: purchased Promega Corporation V3601
T1 sequence (P08183 whole entry): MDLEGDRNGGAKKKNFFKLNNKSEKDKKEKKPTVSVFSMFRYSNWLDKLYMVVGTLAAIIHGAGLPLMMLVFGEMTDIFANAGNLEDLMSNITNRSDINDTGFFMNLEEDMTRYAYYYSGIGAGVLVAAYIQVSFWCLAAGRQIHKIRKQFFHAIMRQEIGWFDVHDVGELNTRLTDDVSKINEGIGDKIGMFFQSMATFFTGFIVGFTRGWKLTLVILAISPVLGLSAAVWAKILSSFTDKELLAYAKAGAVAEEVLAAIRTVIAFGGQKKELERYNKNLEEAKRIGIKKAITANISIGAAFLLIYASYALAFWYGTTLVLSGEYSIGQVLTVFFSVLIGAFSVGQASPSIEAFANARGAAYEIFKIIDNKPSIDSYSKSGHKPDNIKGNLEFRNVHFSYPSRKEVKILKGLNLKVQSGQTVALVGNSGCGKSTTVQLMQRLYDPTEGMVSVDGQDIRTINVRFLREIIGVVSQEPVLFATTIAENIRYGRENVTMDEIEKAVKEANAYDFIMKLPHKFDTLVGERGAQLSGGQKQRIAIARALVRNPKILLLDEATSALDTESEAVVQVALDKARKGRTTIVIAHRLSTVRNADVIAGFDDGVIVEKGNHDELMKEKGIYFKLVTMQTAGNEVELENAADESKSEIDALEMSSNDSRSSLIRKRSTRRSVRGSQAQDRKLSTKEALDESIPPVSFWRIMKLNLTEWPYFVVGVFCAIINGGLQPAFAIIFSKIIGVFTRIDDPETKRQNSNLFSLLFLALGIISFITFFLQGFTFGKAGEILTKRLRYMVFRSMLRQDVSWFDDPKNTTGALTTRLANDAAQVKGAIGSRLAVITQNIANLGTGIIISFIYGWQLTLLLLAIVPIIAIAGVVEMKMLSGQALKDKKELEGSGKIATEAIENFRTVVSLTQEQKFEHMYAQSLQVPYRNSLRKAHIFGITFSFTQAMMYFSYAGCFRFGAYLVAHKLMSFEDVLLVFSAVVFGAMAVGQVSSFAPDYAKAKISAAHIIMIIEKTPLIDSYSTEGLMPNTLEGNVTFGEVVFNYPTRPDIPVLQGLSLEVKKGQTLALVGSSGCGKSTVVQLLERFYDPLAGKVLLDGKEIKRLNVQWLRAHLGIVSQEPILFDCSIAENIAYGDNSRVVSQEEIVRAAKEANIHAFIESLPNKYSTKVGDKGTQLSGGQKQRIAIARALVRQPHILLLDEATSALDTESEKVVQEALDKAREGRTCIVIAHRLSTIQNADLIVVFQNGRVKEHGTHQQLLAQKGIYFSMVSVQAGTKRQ
Description: The detection was performed using anABCB1 ATPase Activity Assay Kit (#V3601, Promega Corporation, Madison, WI, USA). […] Subsequently, 5 mM Mg^2+-ATP was introduced to initiate the ATPase activity reaction. […] Finally, the emitted light was measured with a multi-functional microplate reader manufactured by Gene Company Limited (Chai Wan, Hong Kong).

ABCB1 [4] = assay: Western blot of ABCB1 expression in HCT-8/V cells; type: cell-based, human; conditions: 10 μM and 30 μM H89 for 0.5, 3 and 72 h
Description: Cells were placed in pre-cooled lysis buffer (containing 0.1% sodium dodecyl sulfate, 0.5% sodium deoxycholate, 1% Nonidet P-40, 10 ng/mL phenylmethanesulfonyl fluoride and 0.03% aprotinin) and lysed on ice for 30 min. After centrifugation (14,000× g, 10 min), the clear supernatant was collected. Proteins were separated by 10% sodium dodecyl sulfatepolyacrylamidegel electrophoresis and subsequently transferred to polyvinylidene difluoride membranes. The membranes were blocked with 5% BSA at room temperature for 1 h, followed by sequential incubation with primary antibodies specific to the target protein and horseradish peroxidase-conjugated secondary antibodies. Ultimately, signal detection was conducted via chemiluminescence using a gel imaging system from Bio-Rad Laboratories.

HCT-8 cells [5] = assay: Drug accumulation assay (flow cytometry); type: cell-based, human; conditions: HCT-8 parental cells
Description: (§2) Fluorescence imaging was performed using an Olympus CKX53 microscope (Tokyo, Japan) to assess the intracellular accumulation of the substrate drugs. Subsequently, cells were harvested, and fluorescent quantitative analysis was conducted using a Beckman CytoFLEX flow cytometer. The data were processed via FlowJo v10.8 software.

HCT-8/V cells [6] = assay: Drug accumulation assay (flow cytometry); type: cell-based, human
Description: as §2

O=C1[O][Pt]2([NH][C@@H]3CCCC[C@H]3[NH]2)[O]C1=O [Oxaliplatin, oxaliplatin]
IC50 (HCT-8/V cells [1]; 72 h MTT): 10.1 ± 0.09 µM
Fold Resistance (HCT-8/V cells [1]): 1.08 fold
IC50 (HCT-8 cells [2]; 72 h MTT): 9.3 ± 0.549 µM
Fold Resistance (HCT-8 cells [2]): 1.0 fold

CC[C@]1(O)C[C@H]2CN(CCc3c([nH]c4ccccc34)[C@@](C(=O)OC)(c3cc4c(cc3OC)N(C=O)[C@H]3[C@@](O)(C(=O)OC)[C@H](OC(C)=O)[C@]5(CC)C=CCN6CC[C@]43[C@@H]65)C2)C1 [Vincristine, vincristine]
IC50 (HCT-8/V cells [1]; Homo sapiens, 72 h MTT): > 30 µM
IC50 (HCT-8 cells [2]; Homo sapiens, 72 h MTT): 0.025 ± 0.002 µM

O=S(=O)(NCCNCC=Cc1ccc(Br)cc1)c1cccc2cnccc12 [H89, N-[2-(p-bromocinnamylamino)ethyl]-5-isoquinolinesulfonamide]
Fold Resistance to Doxorubicin in combination (HCT-8/V cells [1]; Doxorubicin + 3 μM of the labelled inhibitor): 4.53 fold
Fold Resistance to Doxorubicin in combination (HCT-8/V cells [1]; Doxorubicin + 10 μM of the labelled inhibitor): 1.85 fold
Fold Resistance to Oxaliplatin in combination (HCT-8/V cells [1]; Oxaliplatin + 3 μM of the labelled inhibitor): 0.89 fold
Fold Resistance to Oxaliplatin in combination (HCT-8/V cells [1]; Oxaliplatin + 10 μM of the labelled inhibitor): 0.79 fold
Fold Resistance to Vincristine in combination (HCT-8/V cells [1]; Vincristine + 3 μM of the labelled inhibitor): 5.60 fold
Fold Resistance to Vincristine in combination (HCT-8/V cells [1]; Vincristine + 10 μM of the labelled inhibitor): 1.88 fold
Cytotoxicity of H89 alone (HCT-8/V cells [1]; at concentrations below 30 μM, 72 h MTT): low cytotoxicity
IC50 (ABCB1 [3]): 0.246 µM
Fold Resistance to Doxorubicin in combination (HCT-8 cells [2]; HCT-8, Doxorubicin + 3 μM of the labelled inhibitor): 1.06 fold
Fold Resistance to Doxorubicin in combination (HCT-8 cells [2]; HCT-8, Doxorubicin + 10 μM of the labelled inhibitor): 1.05 fold
Fold Resistance to Oxaliplatin in combination (HCT-8 cells [2]; HCT-8, Oxaliplatin + 3 μM of the labelled inhibitor): 0.96 fold
Fold Resistance to Oxaliplatin in combination (HCT-8 cells [2]; HCT-8, Oxaliplatin + 10 μM of the labelled inhibitor): 0.91 fold
Fold Resistance to Vincristine in combination (HCT-8 cells [2]; HCT-8, Vincristine + 3 μM of the labelled inhibitor): 0.96 fold
Fold Resistance to Vincristine in combination (HCT-8 cells [2]; HCT-8, Vincristine + 10 μM of the labelled inhibitor): 0.88 fold
Cytotoxicity of H89 alone (HCT-8 cells [2]; HCT-8, at concentrations below 30 μM, 72 h MTT): low cytotoxicity
ABCB1 protein level relative to β-tubulin (ABCB1 [4]): did not alter ABCB1 protein level
Intracellular accumulation of doxorubicin and rhodamine 123 (HCT-8 cells [5]): not observed
Intracellular accumulation of substrate drugs compared with verapamil (HCT-8/V cells [6]; 10 μM H89 vs 10 μM verapamil): achieved or even exceeded the inhibitory effect of verapamil
Intracellular rhodamine 123 levels (HCT-8/V cells [6]; 30 μM H89): comparable to that in HCT-8 cells
Intracellular accumulation of doxorubicin and rhodamine 123 (HCT-8/V cells [6]; 1 h pretreatment, then 10 μM doxorubicin or rhodamine 123 for 2 h): elevated doxorubicin and rhodamine 123 levels in HCT-8/V cells dose-dependently

COc1cccc2c1C(=O)c1c(O)c3c(c(O)c1C2=O)C[C@@](O)(C(=O)CO)C[C@@H]3O[C@H]1C[C@H](N)[C@H](O)[C@H](C)O1 [Doxorubicin, doxorubicin]
IC50 (HCT-8/V cells [1]; Homo sapiens, 72 h MTT): 6.98 ± 0.444 µM
Fold Resistance (HCT-8/V cells [1]): 19.94 fold
Fold Resistance (HCT-8 cells [2]): 1.0 fold
IC50 (HCT-8 cells [2]; Homo sapiens, 72 h MTT): 0.35 ± 0.081 µM
